# Test system: human embryonic stem cell line H1
# Test: Real-time PCR gene expression, dose and stage of ascorbic acid (Example 12)
# Type: cell-based
# Experimental: Cells of the human embryonic stem cell line H1 at various passages (passage 40 to passage 52) were seeded as single cells at a density of 100,000 cells/cm^2 on MATRIGEL™ (1:30 dilution) coated dishes in mTesr™1 media and 10 μM of Y27632. Forty eight hours post seeding, cultures were differentiated into pancreatic endocrine lineage as follows: • a. Stage 1 (Definitive Endoderm (DE)−3 days): Prior to start of DE, the cultures were washed and incubated with incomplete PBS (no Mg or Ca) for 30 seconds followed by addition of the stage 1 media. Human embryonic stem cells cultured as single cells on MATRIGEL™-coated dishes were treated with MCDB-131 medium supplemented with 0.1% fatty acid-free BSA, 0.0012 g/ml sodium bicarbonate, 1× GLUTAMAX™, 5 mM D-Glucose, and 100 ng/ml GDF8 plus 1 μM MCX compound (GSK3B inhibitor) for one day. Cells were then treated with MCDB-131 medium supplemented with 0.1% fatty acid-free BSA, 0.0012 g/ml sodium bicarbonate, 1× GLUTAMAX™, 5 mM glucose, and 100 ng/ml GDF8 plus 100 nM MCX compound for day two, followed by an additional day in MCDB-131 medium supplemented with 0.1% fatty acid-free BSA, 0.0012 g/ml sodium bicarbonate, 1× GLUTAMAX™, 5 mM Glucose, and 100 ng/ml GDF8. • b. Stage 2 (Primitive gut tube−2 days): Stage 1 cells were treated with MCDB-131 medium supplemented with 0.1% fatty acid-free BSA, 0.0012 g/ml sodium bicarbonate, 1× GLUTAMAX™, 5 mM D-Glucose, with or without the addition of 0.25 mM ascorbic acid and 25 ng/ml FGF7 for two days. • c. Stage 3 (Foregut−2 days): Stage 2 cells were treated with MCDB131 medium supplemented with 1:200 dilution of ITS-X, 2.5 mM Glucose, 1× GLUTAMAX™, 0.0015 g/ml sodium bicarbonate, 2% fatty acid-free BSA, 10 ng/ml Activin A, 25 ng/ml FGF7, 0.25 μM SANT-1, +/−0.25 mM ascorbic acid, 1 μM RA, 200 nM TPB, 100 nM LDN-193189 for day 1, followed by treatment with MCDB131 medium supplemented with 1:200 dilution of ITS-X, 2.5 mM Glucose, 1× GLUTAMAX™, 0.0015 g/ml sodium bicarbonate, 2% fatty acid-free BSA, 10 ng/ml Activin A, 25 ng/ml FGF7, 0.25 μM SANT-1, +/−0.25 mM ascorbic acid, 1 μM RA, 200 nM TPB, 10 nM LDN-193189 for an additional day. • d. Stage 4 (Pancreatic foregut precursor-2 days): Stage 3 cells were treated with MCDB131 medium supplemented with 1:200 dilution of ITS-X, 2.5 mM Glucose, 1× GLUTAMAX™, 0.0015 g/ml sodium bicarbonate, 2% fatty acid-free BSA, 0.25 μM SANT-1, 50 nM RA, 200 nM TPB, 50 nM LDN-193189, with or without the addition of 0.25 mM to 1 mM ascorbic acid for two days. • e. […]
# [1] = at stage 5, ascorbic acid added at stages 2-4
smiles,measurement,setting,value
O=C1O[C@H]([C@@H](O)CO)C(O)=C1O [ascorbic acid],benefit of 0.5-1 mM as compared to 0.25 mM ascorbic acid,at S4,no significant benefit
same,expression of insulin and Pax4,[1],maintaining
same,"expression of somatostatin, glucagon, and Pax6",[1],significantly reduced
same,expression of glucagon and somatostatin,"at stage S3-5, ascorbic acid added at stage 2",effective in lowering
